The record followed here is patent publication US8389550B2, “Isoxazoles / O-pyridines with ethyl and ethenyl linker” (Hoffmann-La Roche Inc., priority 2009, dated 2013).

The target of this test is T1, human GABA A α5 receptor (α5β3γ2) (Homo sapiens, UniProt P18507+P31644).
T1 construct: expressed in transfected cells; host or cells: HEK293 cells, transiently transfected; membranes prepared from cell pellets
Kind of test: [3H]flumazenil competition binding assay, HEK293 cells expressing human receptors. The conditions noted are these: displacement of [3H]flumazenil (0.5 nM); HEK293 cells transiently expressing human α5β3γ2; means of two determinations; read-out: hKi GABA A α5. As for the experimental part:
Membrane Preparation and Binding Assay
The affinity of compounds at GABA A receptor subtypes was measured by competition for [3H]flumazenil (85 Ci/mmol; Roche) binding to HEK293 cells expressing rat (stably transfected) or human (transiently transfected) receptors of composition α1β3γ2, α2β3γ2, α3β3γ2 and α5β3γ2.
Cell pellets were suspended in Krebs-tris buffer (4.8 mM KCl, 1.2 mM CaCl2, 1.2 mM MgCl2, 120 mM NaCl, 15 mM Tris; pH 7.5; binding assay buffer), homogenized by polytron for ca. 20 sec on ice and centrifuged for 60 min at 4° C. (50000 g; Sorvall, rotor: SM24=20000 rpm). The cell pellets were resuspended in Krebs-tris buffer and homogenized by polytron for ca. 15 sec on ice. Protein was measured (Bradford method, Bio-Rad) and aliquots of 1 mL were prepared and stored at −80° C.
Radioligand binding assays were carried out in a volume of […] (96-well plates) which contained […] of cell membranes, [3H]flumazenil at a concentration of 1 nM for α1, α2, α3 subunits and 0.5 nM for α5 subunits and the test compound in the range of […]. Nonspecific binding was defined by 10^−5 M diazepam and typically represented less than 5% of the total binding. Assays were incubated to equilibrium for 1 hour at 4° C. and harvested onto GF/C uni-filters (Packard) by filtration using a Packard harvester and washing with ice-cold wash buffer (50 mM Tris; pH 7.5). After drying, filter-retained radioactivity was detected by liquid scintillation counting. Ki values were calculated using Excel-Fit (Microsoft) and are the means of two determinations.
Representative test results, obtained by the above described assay measuring binding affinity to HEK293 cells expressing human (h) receptors, are shown in table 1 below: […]
(In general: Loss of bound radioactivity is the signal in a displacement assay; it reports binding, not function.)
Consider `CCCCc1noc(C)c1/C=C/c1ccc(C(=O)NC(C)CO)cn1` (stereo not drawn) [Example 10, 6-[(E)-2-(3-Butyl-5-methyl-isoxazol-4-yl)-vinyl]-N-(2-hydroxy-1-methyl-ethyl)-nicotinamide], for which the Ki was 8.2 nM.

On to `CCCCc1noc(C)c1/C=C/c1ccc(C(=O)OC)cn1` [Example 7, 6-[(E)-2-(3-Butyl-5-methyl-isoxazol-4-yl)-vinyl]nicotinic acid methyl ester], for which the Ki is 8.1 nM.

Turning to `CCCCc1noc(C)c1/C=C/c1ccc(C(=O)NC(CO)CO)cn1` [Example 15, 6-[(E)-2-(3-Butyl-5-methyl-isoxazol-4-yl)-vinyl]-N-(2-hydroxy-1-hydroxymethyl-ethyl)-nicotinamide], the Ki was 5.3 nM.

In the case of `Cc1onc(-c2ccccc2)c1CCc1ccc(C(=O)NC(C)C)cn1` [Example 16, N-Isopropyl-6-[2-(5-methyl-3-phenyl-isoxazol-4-yl)-ethyl]-nicotinamide], the Ki turned out to be 57.6 nM.

In the case of `CCCCc1noc(C)c1/C=C/c1ccc(C(=O)NC2CCOC2)cn1` (stereo not drawn) [Example 9, 6-[(E)-2-(3-Butyl-5-methyl-isoxazol-4-yl)-vinyl]-N-(tetrahydro-furan-3-yl)-nicotinamide], the Ki came to 8.9 nM.

As for `CCCCc1noc(C)c1/C=C/c1ccc(C(=O)NC(C)C)cn1` [Example 8, 6-[(E)-2-(3-Butyl-5-methyl-isoxazol-4-yl)-vinyl]-N-isopropyl-nicotinamide], the Ki stood at 18.6 nM.

Regarding `Cc1onc(-c2ccccc2)c1/C=C/c1ccc(C(=O)NC2CCOCC2)cn1` [Example 3, 6-[(E)-2-(5-Methyl-3-phenyl-isoxazol-4-yl)-vinyl]-N-(tetrahydro-pyran-4-yl)-nicotinamide], the Ki was found to be 6 nM.

With `Cc1onc(-c2ccccc2)c1/C=C/c1ccc(C(=O)NC(C)CO)cn1` (stereo not drawn) [Example 5, N-(2-Hydroxy-1-methyl-ethyl)-6-[(E)-2-(5-methyl-3-phenyl-isoxazol-4-yl)-vinyl]-nicotinamide], the Ki is 2.9 nM.

With `Cc1onc(-c2ccccc2)c1/C=C/c1ccc(C(=O)NC(C)C)cn1` [Example 2, N-Isopropyl-6-[(E)-2-(5-methyl-3-phenyl-isoxazol-4-yl)-vinyl]-nicotinamide], the Ki stood at 5 nM.

With `COC(=O)c1ccc(/C=C/c2c(-c3ccccc3)noc2C)nc1` [Example 1, 6-[(E)-2-(5-Methyl-3-phenyl-isoxazol-4-yl)-vinyl]nicotinic acid methyl ester], the Ki was 13.9 nM.

`CCCCc1noc(C)c1CCc1ccc(C(=O)NC2CCOC2)cn1` (stereo not drawn) [Example 18, 6-[2-(3-Butyl-5-methyl-isoxazol-4-yl)-ethyl]-N-(tetrahydro-furan-3-yl)-nicotinamide]: the Ki was found to be 58.6 nM.

`CCCCc1noc(C)c1/C=C/c1ccc(C(=O)N[C@H](C)CO)cn1` [Example 13, 6-[(E)-2-(3-Butyl-5-methyl-isoxazol-4-yl)-vinyl]-N—((R)-2-hydroxy-1-methyl-ethyl)-nicotinamide]: the Ki is 12.2 nM.

Turning to `CCCCc1noc(C)c1/C=C/c1ccc(C(=O)NC2CCOCC2)cn1` [Example 12, 6-[(E)-2-(3-Butyl-5-methyl-isoxazol-4-yl)-vinyl]-N-(tetrahydro-pyran-4-yl)-nicotinamide], the Ki was 12.9 nM.

As to `CCCCc1noc(C)c1/C=C/c1ccc(C(=O)N[C@@H](C)CO)cn1` [Example 14, 6-[(E)-2-(3-Butyl-5-methyl-isoxazol-4-yl)-vinyl]-N—((S)-2-hydroxy-1-methyl-ethyl)-nicotinamide], the Ki worked out at 14.1 nM.

`Cc1onc(-c2ccccc2)c1/C=C/c1ccc(C(=O)O)cn1` [Example 6, 6-[(E)-2-(5-Methyl-3-phenyl-isoxazol-4-yl)-vinyl]-nicotinic acid]: the Ki was found to be 38.6 nM.

As to `CCCCc1noc(C)c1/C=C/c1ccc(C(=O)NCC(C)(C)O)cn1` [Example 11, 6-[(E)-2-(3-Butyl-5-methyl-isoxazol-4-yl)-vinyl]-N-(2-hydroxy-2-methyl-propyl)-nicotinamide], the Ki came to 16.3 nM.

As to `CCCCc1noc(C)c1CCc1ccc(C(=O)NC(C)CO)cn1` (stereo not drawn) [Example 17, 6-[2-(3-Butyl-5-methyl-isoxazol-4-yl)-ethyl]-N-(2-hydroxy-1-methyl-ethyl)-nicotinamide], the Ki was determined as 49.4 nM.

Take `Cc1onc(-c2ccccc2)c1/C=C/c1ccc(C(=O)NCCO)cn1` [Example 4, N-(2-Hydroxy-ethyl)-6-[(E)-2-(5-methyl-3-phenyl-isoxazol-4-yl)-vinyl]-nicotinamide]: the Ki is 2 nM.
